Active and inactive are the calls of the source. The calls are words filed in the database; no cut-off is given here.
Experiments:
[1] = test system: K562; assay: Growth inhibition of human K562 cells at 10 uM after 24 hrs by MTT assay relative to control; format: functional; conditions: K562, 24 h, read-out: GI
[2] = test system: K562; assay: Cytotoxicity against human K562 cells after 48 hrs by MTT assay; format: functional, cell-based; conditions: K562, 48 h
[3] = test system: K562; assay: Cell cycle arrest in human K562 cells assessed as accumulation at sub G0/G1 phase at 750 nM after 48 hrs by propidium iodide staining based flow cytometry (reference value: 1.1%); format: functional
[4] = molecular target: Serine-protein kinase ATM (Homo sapiens) (UniProt Q13315); assay: Activation of ATM phosphorylation in human K562 cells assessed as ratio of phosphorylated H2AX at S139 to beta-tubulin level at 2.5 uM after 24 hrs by Western blot analysis (reference value: 1); format: cell-based
Chain of Serine-protein kinase ATM (Homo sapiens) (Q13315 whole entry): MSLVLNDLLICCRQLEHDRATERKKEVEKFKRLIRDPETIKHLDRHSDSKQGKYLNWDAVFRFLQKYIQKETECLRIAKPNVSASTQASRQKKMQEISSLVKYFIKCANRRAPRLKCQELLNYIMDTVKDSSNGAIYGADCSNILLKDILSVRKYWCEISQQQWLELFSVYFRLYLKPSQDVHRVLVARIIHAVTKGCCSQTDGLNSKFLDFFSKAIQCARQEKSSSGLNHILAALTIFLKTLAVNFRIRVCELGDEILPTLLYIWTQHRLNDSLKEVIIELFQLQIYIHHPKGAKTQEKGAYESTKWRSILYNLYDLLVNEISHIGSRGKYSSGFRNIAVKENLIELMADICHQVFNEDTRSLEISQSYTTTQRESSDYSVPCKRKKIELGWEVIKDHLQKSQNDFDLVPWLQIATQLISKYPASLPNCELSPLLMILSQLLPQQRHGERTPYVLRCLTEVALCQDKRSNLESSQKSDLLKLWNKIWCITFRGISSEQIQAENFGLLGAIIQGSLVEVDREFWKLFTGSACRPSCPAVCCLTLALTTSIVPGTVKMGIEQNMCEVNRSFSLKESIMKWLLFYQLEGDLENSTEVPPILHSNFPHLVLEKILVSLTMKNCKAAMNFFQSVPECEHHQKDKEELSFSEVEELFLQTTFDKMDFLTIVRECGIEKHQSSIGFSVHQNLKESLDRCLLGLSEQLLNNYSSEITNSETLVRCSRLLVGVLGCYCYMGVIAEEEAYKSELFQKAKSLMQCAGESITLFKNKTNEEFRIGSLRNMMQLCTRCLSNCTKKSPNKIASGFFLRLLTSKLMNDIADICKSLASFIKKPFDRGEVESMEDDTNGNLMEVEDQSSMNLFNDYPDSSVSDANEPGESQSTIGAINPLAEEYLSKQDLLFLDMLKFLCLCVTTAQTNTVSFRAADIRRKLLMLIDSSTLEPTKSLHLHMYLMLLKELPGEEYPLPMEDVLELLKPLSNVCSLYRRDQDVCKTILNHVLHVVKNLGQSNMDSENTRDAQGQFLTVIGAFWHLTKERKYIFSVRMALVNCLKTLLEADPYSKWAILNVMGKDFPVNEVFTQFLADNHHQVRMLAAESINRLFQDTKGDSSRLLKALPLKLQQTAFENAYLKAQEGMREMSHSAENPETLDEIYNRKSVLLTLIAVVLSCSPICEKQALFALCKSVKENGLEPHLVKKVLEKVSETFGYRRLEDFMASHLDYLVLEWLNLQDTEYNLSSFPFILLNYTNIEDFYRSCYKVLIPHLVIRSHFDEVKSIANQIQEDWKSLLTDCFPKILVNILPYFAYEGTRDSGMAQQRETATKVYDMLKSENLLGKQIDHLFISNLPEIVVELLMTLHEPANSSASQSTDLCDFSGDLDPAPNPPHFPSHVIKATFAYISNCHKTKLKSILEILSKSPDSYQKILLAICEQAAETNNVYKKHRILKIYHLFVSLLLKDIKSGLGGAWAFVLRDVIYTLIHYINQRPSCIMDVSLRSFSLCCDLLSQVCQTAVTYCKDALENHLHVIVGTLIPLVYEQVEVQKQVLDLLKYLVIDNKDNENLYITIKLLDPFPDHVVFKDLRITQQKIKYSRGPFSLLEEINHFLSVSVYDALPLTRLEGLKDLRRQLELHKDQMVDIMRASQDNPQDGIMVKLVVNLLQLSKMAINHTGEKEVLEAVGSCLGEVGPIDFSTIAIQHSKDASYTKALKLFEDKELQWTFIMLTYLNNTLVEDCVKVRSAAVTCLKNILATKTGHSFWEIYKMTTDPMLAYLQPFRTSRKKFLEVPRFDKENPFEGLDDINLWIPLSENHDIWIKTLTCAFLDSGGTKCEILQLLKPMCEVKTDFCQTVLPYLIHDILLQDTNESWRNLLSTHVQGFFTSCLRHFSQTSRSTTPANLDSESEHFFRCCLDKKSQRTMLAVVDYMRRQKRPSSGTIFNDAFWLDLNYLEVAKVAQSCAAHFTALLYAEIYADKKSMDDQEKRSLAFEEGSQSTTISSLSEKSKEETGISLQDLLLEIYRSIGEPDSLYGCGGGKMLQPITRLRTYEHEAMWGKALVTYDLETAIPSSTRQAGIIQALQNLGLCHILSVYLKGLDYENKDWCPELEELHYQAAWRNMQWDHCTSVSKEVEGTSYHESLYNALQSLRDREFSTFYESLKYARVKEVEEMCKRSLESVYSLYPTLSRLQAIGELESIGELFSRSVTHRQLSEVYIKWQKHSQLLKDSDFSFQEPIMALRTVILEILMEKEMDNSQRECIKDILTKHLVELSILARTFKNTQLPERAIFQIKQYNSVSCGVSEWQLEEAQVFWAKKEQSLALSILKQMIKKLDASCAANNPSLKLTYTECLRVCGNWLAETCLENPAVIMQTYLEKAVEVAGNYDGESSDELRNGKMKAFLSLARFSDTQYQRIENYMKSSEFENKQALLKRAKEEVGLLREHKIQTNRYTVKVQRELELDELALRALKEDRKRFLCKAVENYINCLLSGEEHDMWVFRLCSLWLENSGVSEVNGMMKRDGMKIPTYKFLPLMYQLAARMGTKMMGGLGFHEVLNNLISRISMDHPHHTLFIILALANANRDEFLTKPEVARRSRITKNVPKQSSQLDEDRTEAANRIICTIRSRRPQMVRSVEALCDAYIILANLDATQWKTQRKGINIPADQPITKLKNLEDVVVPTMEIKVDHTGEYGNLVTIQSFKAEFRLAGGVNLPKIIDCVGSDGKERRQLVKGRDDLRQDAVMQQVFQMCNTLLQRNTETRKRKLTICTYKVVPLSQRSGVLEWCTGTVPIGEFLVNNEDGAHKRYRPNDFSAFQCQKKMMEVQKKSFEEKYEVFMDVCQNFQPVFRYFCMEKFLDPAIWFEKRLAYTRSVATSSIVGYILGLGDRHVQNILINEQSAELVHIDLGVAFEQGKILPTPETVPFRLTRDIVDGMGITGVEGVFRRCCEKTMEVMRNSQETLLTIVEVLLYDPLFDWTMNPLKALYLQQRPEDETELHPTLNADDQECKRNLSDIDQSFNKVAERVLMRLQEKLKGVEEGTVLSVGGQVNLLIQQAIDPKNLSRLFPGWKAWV

[5] = molecular target: Serine-protein kinase ATM (Homo sapiens) (UniProt Q13315); assay: Activation of ATM phosphorylation in human K562 cells assessed as ratio of phosphorylated H2AX at S139 to beta-tubulin level at 750 nM after 48 hrs by Western blot analysis (reference value: 0.8); format: cell-based
[6] = test system: K562; assay: Cell cycle arrest in human K562 cells assessed as accumulation at sub G0/G1 phase at 2.5 uM after 24 hrs by propidium iodide staining based flow cytometry (reference value: 3.1%); format: functional
[7] = test system: K562; assay: Cell cycle arrest in human K562 cells assessed as accumulation at G2/M phase at 2.5 uM after 24 hrs by propidium iodide staining based flow cytometry (reference value: 13.3%); format: functional
[8] = molecular target: T1, c-Jun N-terminal kinase, JNK (Homo sapiens) (UniProt P45983+P53779+P45984); assay: Induction of JNK phosphorylation in human K562 cells assessed as ratio of phosphorylated JNK to beta-tubulin at 2.5 uM after 48 hrs by Western blot analysis (reference value: 1); format: cell-based
[9] = test system: K562; assay: Induction of apoptosis in human K562 cells assessed as cell shrinkage at 0.75 to 2.5 uM after 24 to 48 hrs by Hoechst 33342/DAPI staining based fluorescence microscopic analysis; format: functional
[10] = test system: K562; assay: Cell cycle arrest in human K562 cells assessed as accumulation at G0/G1 phase at 750 nM after 48 hrs by propidium iodide staining based flow cytometry (reference value: 67.4%); format: functional
[11] = test system: K562; assay: Cell cycle arrest in human K562 cells assessed as accumulation at sub G0/G1 phase at 750 nM after 24 hrs by propidium iodide staining based flow cytometry (reference value: 3.1%); format: functional
[12] = test system: K562; assay: Induction of apoptosis in human K562 cells assessed as ratio of procaspase-3 to beta actin level at 750 nM after 48 hrs by Western blot analysis (reference value: 0.9); format: functional
[13] = test system: K562; assay: Cell cycle arrest in human K562 cells assessed as accumulation at sub G0/G1 phase at 2.5 uM after 48 hrs by propidium iodide staining based flow cytometry (reference value: 1.1%); format: functional
[14] = test system: K562; assay: Induction of morphological changes in human K562 cells assessed as reduction in cell number at 0.75 to 2.5 uM after 24 hrs by light microscopic method; format: functional, cell-based
[15] = Selectivity index, ratio of IC50 for human 16HBE cells to IC50 for human MDA-MB-231 cells; format: functional
[16] = test system: K562; assay: Cell cycle arrest in human K562 cells assessed as accumulation at G0/G1 phase at 2.5 uM after 24 hrs by propidium iodide staining based flow cytometry (reference value: 68.8%); format: functional
[17] = test system: MDA-MB-231; assay: Cytotoxicity against human MDA-MB-231 cells after 24 hrs by MTT assay; format: functional, cell-based; conditions: MDA-MB-231, 24 h
[18] = test system: K562; assay: Cytotoxicity against human K562 cells after 24 hrs by MTT assay; format: functional, cell-based; conditions: K562, 24 h
[19] = molecular target: Serine-protein kinase ATM (Homo sapiens) (UniProt Q13315); assay: Activation of ATM phosphorylation in human K562 cells assessed as ratio of phosphorylated ATM to beta-tubulin level at 750 nM after 48 hrs by Western blot analysis (reference value: 0.2); format: cell-based
[20] = molecular target: Serine-protein kinase ATM (Homo sapiens) (UniProt Q13315); assay: Activation of ATM phosphorylation in human K562 cells assessed as ratio of phosphorylated ATM to beta-tubulin level at 2.5 uM after 24 hrs by Western blot analysis (reference value: 0.2); format: cell-based
[21] = test system: K562; assay: Induction of apoptosis in human K562 cells assessed as chromatin condensation at 0.75 to 2.5 uM after 24 to 48 hrs by Hoechst 33342/DAPI staining based fluorescence microscopic analysis; format: functional, cell-based
[22] = molecular target: Serine-protein kinase ATM (Homo sapiens) (UniProt Q13315); assay: Activation of ATM phosphorylation in human K562 cells assessed as ratio of phosphorylated H2AX at S139 to beta-tubulin level at 2.5 uM after 48 hrs by Western blot analysis (reference value: 0.8); format: cell-based
[23] = test system: 16HBE14o-; assay: Cytotoxicity against human 16HBE cells after 24 hrs by MTT assay; format: cell-based
[24] = molecular target: Serine-protein kinase ATM (Homo sapiens) (UniProt Q13315); assay: Activation of ATM phosphorylation in human K562 cells assessed as ratio of phosphorylated H2AX at S139 to beta-tubulin level at 750 nM after 24 hrs by Western blot analysis (reference value: 1); format: cell-based
[25] = Selectivity index, ratio of IC50 for human 16HBE cells to IC50 for human HT-29 cells; format: functional
[26] = molecular target: Serine-protein kinase ATM (Homo sapiens) (UniProt Q13315); assay: Activation of ATM phosphorylation in human K562 cells assessed as ratio of phosphorylated ATM to beta-tubulin level at 750 nM after 24 hrs by Western blot analysis (reference value: 0.2); format: cell-based
[27] = test system: K562; assay: Cell cycle arrest in human K562 cells assessed as accumulation at G2/M phase at 750 nM after 24 hrs by propidium iodide staining based flow cytometry (reference value: 13.3%); format: functional
[28] = test system: K562; assay: Induction of morphological changes in human K562 cells assessed as appearance of shrunken cytoplasm at 0.75 to 2.5 uM after 24 hrs by light microscopic method; format: functional, cell-based
[29] = test system: K562; assay: Cell cycle arrest in human K562 cells assessed as accumulation at G2/M phase at 750 nM after 48 hrs by propidium iodide staining based flow cytometry (reference value: 17.7%); format: functional
[30] = molecular target: T1, c-Jun N-terminal kinase, JNK (Homo sapiens); assay: Induction of JNK phosphorylation in human K562 cells assessed as ratio of phosphorylated JNK to beta-tubulin at 750 nM after 48 hrs by Western blot analysis (reference value: 1); format: cell-based
[31] = molecular target: T1, c-Jun N-terminal kinase, JNK (Homo sapiens); assay: Induction of JNK phosphorylation in human K562 cells assessed as ratio of phosphorylated JNK to beta-tubulin at 750 nM after 24 hrs by Western blot analysis (reference value: 1); format: cell-based
[32] = test system: K562; assay: Induction of morphological changes in human K562 cells assessed as cellular fragmentation at 0.75 to 2.5 uM after 48 hrs by light microscopic method; format: functional, cell-based
[33] = test system: K562; assay: Induction of apoptosis in human K562 cells assessed as ratio of procaspase-3 to beta actin level at 2.5 uM after 48 hrs by Western blot analysis (reference value: 0.9); format: functional
[34] = molecular target: T1, c-Jun N-terminal kinase, JNK (Homo sapiens); assay: Induction of JNK phosphorylation in human K562 cells assessed as ratio of phosphorylated JNK to beta-tubulin at 2.5 uM after 24 hrs by Western blot analysis (reference value: 1); format: cell-based
[35] = test system: K562; assay: Cell cycle arrest in human K562 cells assessed as accumulation at G0/G1 phase at 750 nM after 24 hrs by propidium iodide staining based flow cytometry (reference value: 68.8%); format: functional
[36] = test system: K562; assay: Induction of apoptosis in human K562 cells assessed as ratio of procaspase-3 to beta actin level at 2.5 uM after 24 hrs by Western blot analysis (reference value: 1); format: functional
[37] = Selectivity index, ratio of IC50 for human 16HBE cells to IC50 for human K562 cells; format: functional
[38] = test system: K562; assay: Cell cycle arrest in human K562 cells assessed as accumulation at G2/M phase at 2.5 uM after 48 hrs by propidium iodide staining based flow cytometry (reference value: 17.7%); format: functional
[39] = test system: K562; assay: Induction of reactive oxygen species generation in human K562 cells at 0.75 to 2.5 uM after 48 hrs by H2DCFDA staining based fluorescence microscopic analysis; format: functional, cell-based
[40] = molecular target: Serine-protein kinase ATM (Homo sapiens) (UniProt Q13315); assay: Activation of ATM phosphorylation in human K562 cells assessed as ratio of phosphorylated ATM to beta-tubulin level at 2.5 uM after 48 hrs by Western blot analysis (reference value: 0.2); format: cell-based
[41] = test system: K562; assay: Induction of reactive oxygen species generation in human K562 cells at 0.75 to 2.5 uM after 5 to 24 hrs by H2DCFDA staining based fluorescence microscopic analysis; format: functional, cell-based
[42] = test system: K562; assay: Induction of apoptosis in human K562 cells assessed as ratio of procaspase-3 to beta actin level at 750 nM after 24 hrs by Western blot analysis (reference value: 1); format: functional
[43] = test system: K562; assay: Cell cycle arrest in human K562 cells assessed as accumulation at G0/G1 phase at 2.5 uM after 48 hrs by propidium iodide staining based flow cytometry (reference value: 67.4%); format: functional
[44] = test system: K562; assay: Induction of morphological changes in human K562 cells assessed as reduction in cell volume at 0.75 to 2.5 uM after 24 hrs by light microscopic method; format: functional, cell-based
[45] = test system: HT-29; assay: Cytotoxicity against human HT-29 cells after 24 hrs by MTT assay; format: functional, cell-based; conditions: HT-29, 24 h
[46] = test system: K562; assay: Induction of apoptosis in human K562 cells assessed as DNA fragmentation at 0.75 to 2.5 uM after 24 to 48 hrs by Hoechst 33342/DAPI staining based fluorescence microscopic analysis; format: functional, cell-based

NC(=O)c1cc(I)ccc1NC(=O)c1ccc(-c2ccccc2)cc1
inhibition of growth at 10 µM [1]: 15%
IC50 [2]: 15 µM

NC(=O)c1cc(I)ccc1NC(=O)[C@@H]1C[C@H]1c1ccccc1
inhibition of growth at 10 µM [1]: 25%
IC50 [2]: 10 µM

COc1cc(NC(=O)[C@@H]2C[C@H]2c2ccccc2)c(C(N)=O)cc1OC
inhibition of growth at 10 µM [1]: 26.7%

Cc1ccc(NC(=O)c2ccc(-c3ccccc3)cc2)c(C(N)=O)c1
inhibition of growth at 10 µM [1]: 39.7%

NC(=O)c1cc(Cl)ccc1NC(=O)c1ccccc1-c1ccccc1
inhibition of growth at 10 µM [1]: 47.3%

COc1ccc(NC(=O)c2ccc(-c3ccccc3)cc2)c(C(N)=O)c1
inhibition of growth at 10 µM [1]: 29.2%

NC(=O)c1ccccc1NC(=O)[C@@H]1C[C@H]1c1ccccc1
inhibition of growth at 10 µM [1]: < 10%

Cc1ccc(NC(=O)[C@@H]2C[C@H]2c2ccccc2)c(C(N)=O)c1
inhibition of growth at 10 µM [1]: 15%

NC(=O)c1cc(Cl)ccc1NC(=O)c1ccc(-c2ccccc2)cc1
inhibition of growth at 10 µM [1]: 45%

COc1ccc(NC(=O)[C@@H]2C[C@H]2c2ccccc2)c(C(N)=O)c1
inhibition of growth at 10 µM [1]: 26.7%

COc1cc(NC(=O)c2ccccc2-c2ccccc2)c(C(N)=O)cc1OC
inhibition of growth at 10 µM [1]: 46%

NC(=O)c1ccccc1NC(=O)c1ccccc1-c1ccccc1
inhibition of growth at 10 µM [1]: 44.6%

NC(=O)c1ccccc1NC(=O)c1ccc(-c2ccccc2)cc1
inhibition of growth at 10 µM [1]: 21.6%

NC(=O)c1cc(Cl)ccc1NC(=O)[C@@H]1C[C@H]1c1ccccc1
inhibition of growth at 10 µM [1]: 24%

COc1cc(NC(=O)c2ccc(-c3ccccc3)cc2)c(C(N)=O)cc1OC
inhibition of growth at 10 µM [1]: 48%

NC(=O)c1cc(I)ccc1NC(=O)c1ccccc1-c1ccccc1
Activity [3]: 4%
Ratio [4]: 2.1
Ratio [5]: 2.2
Activity [6]: 2.2%
Activity [7]: 74.6%
Ratio [8]: 1.4
Activity [9]: Active
inhibition of growth at 10 µM [1]: 85%
Activity [10]: 48.6%
Activity [11]: 2.7%
Ratio [12]: 0.5
Activity [13]: 26.2%
Activity [14]: Active
Ratio IC50 [15]: 3
Activity [16]: 14.9%
IC50 [17]: 10 µM
IC50 [18]: 0.5 µM
Ratio [19]: 0.5
Ratio [20]: 2.5
Activity [21]: Active
Ratio [22]: 1.6
IC50 [23]: 30 µM
Ratio [24]: 1.5
Ratio IC50 [25]: 3
Ratio [26]: 1
Activity [27]: 37.1%
Activity [28]: Active
IC50 [2]: 0.5 µM
Activity [29]: 30.5%
Ratio [30]: 1.2
Ratio [31]: 0.8
Activity [32]: Active
Ratio [33]: 0.5
Ratio [34]: 1.2
Activity [35]: 54.9%
Ratio [36]: 0.8
Ratio IC50 [37]: 60
Activity [38]: 13.4%
Activity [39]: Active
Ratio [40]: 0.9
Activity [41]: inactive
Ratio [42]: 0.8
Activity [43]: 50.5%
Activity [44]: Active
IC50 [45]: 10 µM
Activity [46]: Active

Cc1ccc(NC(=O)c2ccccc2-c2ccccc2)c(C(N)=O)c1
inhibition of growth at 10 µM [1]: 48.9%

COc1ccc(NC(=O)c2ccccc2-c2ccccc2)c(C(N)=O)c1
inhibition of growth at 10 µM [1]: 37%

COc1cc2c(c(OC)c1OC)-c1ccc(OC)c(=O)cc1[C@@H](NC(C)=O)CC2 [COLCHICINE]
inhibition of growth at 10 µM [1]: 63.6%
